ChEMBL document CHEMBL1124261 (J Med Chem, 1988)

Legend:
[1] = target: T1, Folylpolyglutamate synthase, mitochondrial (Mus musculus, UniProt P48760); test: Inhibitory constant against purified Folyl-polyglutamate synthase obtained from mouse liver
T1 sequence (P48760 whole entry): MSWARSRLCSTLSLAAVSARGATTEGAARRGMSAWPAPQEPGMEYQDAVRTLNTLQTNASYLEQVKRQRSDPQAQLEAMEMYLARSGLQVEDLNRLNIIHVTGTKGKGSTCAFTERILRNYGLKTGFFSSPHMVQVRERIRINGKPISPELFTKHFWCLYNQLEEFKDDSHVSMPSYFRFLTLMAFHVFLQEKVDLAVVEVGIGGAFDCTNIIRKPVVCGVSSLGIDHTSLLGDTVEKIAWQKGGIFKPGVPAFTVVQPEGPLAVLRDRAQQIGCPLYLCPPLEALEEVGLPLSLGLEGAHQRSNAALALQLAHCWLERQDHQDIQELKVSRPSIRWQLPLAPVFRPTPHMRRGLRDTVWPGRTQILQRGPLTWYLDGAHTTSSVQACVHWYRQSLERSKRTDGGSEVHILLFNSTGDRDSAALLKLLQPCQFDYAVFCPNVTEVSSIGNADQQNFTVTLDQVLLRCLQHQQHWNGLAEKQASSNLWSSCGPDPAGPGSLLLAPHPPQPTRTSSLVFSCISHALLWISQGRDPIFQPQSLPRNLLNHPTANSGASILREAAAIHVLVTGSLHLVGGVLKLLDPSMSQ

[2] = target: T2, Folylpolyglutamate synthase, mitochondrial (Homo sapiens, UniProt Q05932); test: Inhibitory constant against purified Folyl-polyglutamate synthase obtained from human
T2 sequence (Q05932 whole entry): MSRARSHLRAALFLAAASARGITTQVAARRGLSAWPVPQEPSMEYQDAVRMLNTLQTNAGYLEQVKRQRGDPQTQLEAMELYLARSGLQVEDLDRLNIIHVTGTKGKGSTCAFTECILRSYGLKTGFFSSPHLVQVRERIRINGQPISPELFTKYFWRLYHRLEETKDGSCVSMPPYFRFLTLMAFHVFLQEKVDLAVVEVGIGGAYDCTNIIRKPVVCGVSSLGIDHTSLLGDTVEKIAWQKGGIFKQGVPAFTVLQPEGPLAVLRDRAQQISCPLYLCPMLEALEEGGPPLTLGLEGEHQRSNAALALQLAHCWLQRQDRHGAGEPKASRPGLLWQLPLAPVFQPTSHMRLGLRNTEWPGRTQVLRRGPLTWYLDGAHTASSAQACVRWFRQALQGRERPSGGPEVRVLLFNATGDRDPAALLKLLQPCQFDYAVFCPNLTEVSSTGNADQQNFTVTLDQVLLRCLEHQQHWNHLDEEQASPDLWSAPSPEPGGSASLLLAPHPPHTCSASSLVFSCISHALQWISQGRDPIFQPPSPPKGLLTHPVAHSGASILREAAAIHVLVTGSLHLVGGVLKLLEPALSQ

CCRF-CEM [3] = test: Tested for cell-growth inhibition against human leukemic lymphoblast CEM/MTX cells; type: functional, cell-based
L1210 [4] = test: Increase in life span of mice infected with L1210 leukemia after an intraperitoneal dose of 60 mg/kg for 9 days; type: functional; details: Mus musculus, L1210, ip, 216 h
L1210 [5] = test: Range for the survival of mice infected with L1210 leukemia after an intraperitoneal dose of 60 mg/kg for 9 days; Range is 10-18; type: functional, Mus musculus
Dihydrofolate reductase = target: T3, Dihydrofolate reductase (Mus musculus, UniProt P00375); test: biochemical
T3 sequence (P00375 whole entry): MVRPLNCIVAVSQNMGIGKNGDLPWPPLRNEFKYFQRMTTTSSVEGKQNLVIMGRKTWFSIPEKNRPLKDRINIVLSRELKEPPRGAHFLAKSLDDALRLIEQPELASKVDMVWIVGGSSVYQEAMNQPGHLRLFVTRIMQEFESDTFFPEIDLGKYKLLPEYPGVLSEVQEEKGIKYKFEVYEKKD
Description: Tested for inhibition against purified Dihydrofolate reductase from L1210 murine leukemia cells

CCRF-CEM [6] = test: Tested for cell-growth inhibition against human leukemic lymphoblast CEM cells; type: functional, cell-based
L1210 [7] = test: Mean survival of mice infected with L1210 leukemia after an intraperitoneal dose of 40 mg/kg for 9 days; type: functional, Mus musculus
L1210 [8] = test: Mean change in weight of mice infected with L1210 leukemia after 7 days after an intraperitoneal dose of 80 mg/kg; type: functional, Mus musculus
L1210 [9] = test: Range for the survival of mice infected with L1210 leukemia after an intraperitoneal dose of 40 mg/kg for 9 days; Range is 13-23; type: functional, Mus musculus
L1210 [10] = test: Tested for cell-growth inhibition against mouse leukemic L1210 cells; type: functional, cell-based
Mus musculus [11] = species: Mus musculus; test: (§1) Tested for inhibition against purified Folyl-polyglutamate synthase from mouse liver; details: concentration not given here
L1210 [12] = test: Mean survival of mice infected with L1210 leukemia after an intraperitoneal dose of 20 mg/kg for 9 days; type: functional, Mus musculus
L1210 [13] = test: Increase in life span of mice infected with L1210 leukemia after an intraperitoneal dose of 20 mg/kg for 9 days; type: functional; details: Mus musculus, L1210, ip, 216 h
L1210 [14] = test: Mean change in weight of mice infected with L1210 leukemia after 7 days after an intraperitoneal dose of 20 mg/kg; type: functional, Mus musculus
L1210 [15] = test: Mean change in weight of mice infected with L1210 leukemia after 7 days after an intraperitoneal dose of 40 mg/kg; type: functional, Mus musculus
L1210 [16] = test: Increase in life span of mice infected with L1210 leukemia after an intraperitoneal dose of 80 mg/kg for 9 days; type: functional; details: Mus musculus, L1210, ip, 216 h
L1210 [17] = test: Mean change in weight of mice infected with L1210 leukemia after 7 days after an intraperitoneal dose of 60 mg/kg; type: functional, Mus musculus
L1210 [18] = test: Mean survival of mice infected with L1210 leukemia after an intraperitoneal dose of 80 mg/kg for 9 days; type: functional, Mus musculus
L1210 ( R81) = test: Tested for cell-growth inhibition against mouse leukemic L1210/R81 cells; type: functional, cell-based
L1210 [19] = test: Mean survival of mice infected with L1210 leukemia after an intraperitoneal dose of 60 mg/kg for 9 days; type: functional, Mus musculus
L1210 [20] = test: Range for the survival of mice infected with L1210 leukemia after an intraperitoneal dose of 80 mg/kg for 9 days; Range is 9-23; type: functional, Mus musculus
L1210 [21] = test: Increase in life span of mice infected with L1210 leukemia after an intraperitoneal dose of 40 mg/kg for 9 days; type: functional; details: Mus musculus, L1210, ip, 216 h
L1210 [22] = test: Range for the survival of mice infected with L1210 leukemia after an intraperitoneal dose of 20 mg/kg for 9 days; Range is 15-16; type: functional, Mus musculus
[23] = target: T4, Folylpolyglutamate synthase, mitochondrial (Mus musculus) (UniProt P48760); test: as §1; details: concentration not given here
T4 sequence (whole entry): T1 sequence (P48760 whole entry)

L1210 [24] = test: Range for the survival of mice infected with L1210 leukemia after an intraperitoneal dose of 20 mg/kg for 9 days; Range is 14-16; type: functional, Mus musculus
L1210 [25] = test: Range for the survival of mice infected with L1210 leukemia after an intraperitoneal dose of 80 mg/kg for 9 days; Range is 9-16; type: functional, Mus musculus
L1210 [26] = test: Range for the survival of mice infected with L1210 leukemia after an intraperitoneal dose of 40 mg/kg for 9 days; Range is 15-22; type: functional, Mus musculus
L1210 [27] = test: Range for the survival of mice infected with L1210 leukemia after an intraperitoneal dose of 60 mg/kg for 9 days; Range is 17-19; type: functional, Mus musculus
[28] = target: T1, Folylpolyglutamate synthase, mitochondrial; test: (§2) Inhibitory constant against purified Folyl-polyglutamate synthase from mouse liver
[29] = target: T1, Folylpolyglutamate synthase, mitochondrial; test: Inhibitory constant against purified Folyl-polyglutamate synthase obtained from mouse
[30] = as §2; type: functional
L1210 [31] = test: Range for the survival of mice infected with L1210 leukemia after an intraperitoneal dose of 80 mg/kg for 9 days; Range is 12-18; type: functional, Mus musculus
L1210 [32] = test: Range for the survival of mice infected with L1210 leukemia after an intraperitoneal dose of 60 mg/kg for 9 days; Range is 12-19; type: functional, Mus musculus
L1210 [33] = test: Range for the survival of mice infected with L1210 leukemia after an intraperitoneal dose of 20 mg/kg for 9 days; Range is 13-14; type: functional, Mus musculus
[34] = target: T4, Folylpolyglutamate synthase, mitochondrial (Mus musculus); test: as §1; type: functional; details: concentration not given here
L1210 [35] = test: Range for the survival of mice infected with L1210 leukemia after an intraperitoneal dose of 40 mg/kg for 9 days; Range is 14-16; type: functional, Mus musculus
L1210 [36] = test: Range for the survival of mice infected with L1210 leukemia after an intraperitoneal dose of 20 mg/kg for 9 days; Range is 16-19; type: functional, Mus musculus
L1210 [37] = test: Range for the survival of mice infected with L1210 leukemia after an intraperitoneal dose of 60 mg/kg for 9 days; Range is […]; type: functional, Mus musculus
Mus musculus [38] = species: Mus musculus; test: as §1; type: functional; details: dose or concentration not given here
L1210 [39] = test: Range for the survival of mice infected with L1210 leukemia after an intraperitoneal dose of 40 mg/kg for 9 days; Range is 14-24; type: functional, Mus musculus

Compound	IC50 (CCRF-CEM [3]) [µM]	ILS at 60 mg/kg (L1210 [4]) [%]	IC50 (Dihydrofolate reductase) [µM]	IC50 (CCRF-CEM [6]) [µM]	Survival (L1210 [7]) [days]	Weight change (L1210 [8]) [%]	IC50 (L1210 [10]) [µM]	Survival (L1210 [12]) [days]	ILS at 20 mg/kg (L1210 [13]) [%]	Weight change (L1210 [14]) [%]	Weight change (L1210 [15]) [%]	ILS at 80 mg/kg (L1210 [16]) [%]	Weight change (L1210 [17]) [%]	Survival (L1210 [18]) [days]	IC50 (L1210 ( R81)) [µM]	Survival (L1210 [19]) [days]	ILS at 40 mg/kg (L1210 [21]) [%]	further results
CN(Cc1cnc2nc(N)nc(N)c2n1)c1ccc(C(=O)N[C@@H](CCCN)C(=O)O)cc1	–	–	–	–	–	–	–	–	–	–	–	–	–	–	–	–	–	Ki [1]: 20 µM; Ki [2]: 4 µM
CN(Cc1cnc2nc(N)nc(N)c2n1)c1ccc(C(=O)NC(CCCCCCCCC(=O)O)C(=O)O)cc1 (centres undefined)	2.2	70	0.029	0.056	16.9	-5	0.0031	15.2	73	5	2	73	4	15.2	78	15	92	Range (L1210 [5]): 10 days; Range (L1210 [9]): 13 days; inhibition (Mus musculus [11]): 49%; Range (L1210 [20]): 9 days; Range (L1210 [22]): 15 days
CN(Cc1cnc2nc(N)nc(N)c2n1)c1ccc(C(=O)NC(CCCCCCC(=O)O)C(=O)O)cc1 (centres undefined)	5.8	105	0.023	0.15	17	-12	0.0012	14.8	68	4	-1	43	4	12.6	68	18	93	inhibition [23]: 47%; Range (L1210 [24]): 14 days; Range (L1210 [25]): 9 days; Range (L1210 [26]): 15 days; Range (L1210 [27]): 17 days; Ki [28]: 320 µM
NCCC[C@H](NC(=O)c1ccc(NCc2cnc3nc(N)nc(N)c3n2)cc1)C(=O)O	–	–	–	–	–	–	–	–	–	–	–	–	–	–	–	–	–	Ki [2]: 0.3 µM; Ki [29]: 0.3 µM
Nc1nc(N)c2nc(CNc3ccc(C(=O)NC(CCCCCCCCCC(=O)O)C(=O)O)cc3)cnc2n1 (centres undefined)	–	–	0.081	–	–	–	0.00065	–	–	–	–	–	–	–	110	–	–	inhibition (Mus musculus [11]): 90%; Ki [30]: 24 µM
CN(Cc1cnc2nc(N)nc(N)c2n1)c1ccc(C(=O)NC(CCCCCCCC(=O)O)C(=O)O)cc1 (centres undefined)	1	74	0.032	0.062	14.6	3	0.0042	13.6	55	7	6	73	6	15.2	73	15.3	66	Range (L1210 [31]): 12 days; Range (L1210 [32]): 12 days; Range (L1210 [33]): 13 days; inhibition [34]: 43%; Range (L1210 [35]): 14 days
CN(Cc1cnc2nc(N)nc(N)c2n1)c1ccc(C(=O)NC(CCCCCCCCCC(=O)O)C(=O)O)cc1 (centres undefined)	10	100	0.034	0.016	17.2	2	0.0071	17.4	98	6	3	73	5	15.2	58	17.6	95	Range (L1210 [31]): 12 days; Range (L1210 [36]): 16 days; Range (L1210 [37]): 15 days; inhibition (Mus musculus [38]): 53%; Range (L1210 [39]): 14 days
Nc1nc(N)c2nc(CNc3ccc(C(=O)N[C@@H](CCC(=O)O)C(=O)O)cc3)cnc2n1 [AMINOPTERIN]	–	–	0.025	–	–	–	–	–	–	–	–	–	–	–	–	–	–	–
